Patent US7521432B2, “Compositions and methods for identifying agents which regulate chromosomal stability, gene activation and aging” (priority 2000, dated 2009)

Assays:
HST2 = HST2 (Saccharomyces cerevisiae, UniProt P53686); assay: Rapid-reaction single turnover quench-flow analysis; assay type: biochemical, yeast; details: HST2, excess NAD^+, sub-stoichiometric [^3H]-AcLys14 H3, 22±3° C., pH 7.5, single exponential fit
From the text: FIGS. 5A-5C are a series of graphs showing that acetate is not a primary product of HST2-catalyzed histone/protein deacetylation. H3 peptide was stoichiometrically acetylated on Lys-14 by the histone acetyltransferase P/CAF and using [^3H]-AcCoA. Monoacetylated [^3H]-AcLys-14 H3 peptide was then purified by HPLC (FIG. 5A) and utilized as a substrate in the HST2 deacetylation reactions (FIG. 5B). Upon complete consumption of [^3H]-AcLys-14 H3 by HST2, all of the original [^3H] from H3 peptide was converted to a labeled product that eluted much later than authentic acetate. Conditions: 375 nM HST2, 175 μM NAD^+, 5 μM [^3H]-Lys14 AcH3, 1 mM DTT, for 1 min at 37° C. prior to quenching with TFA to a final concentration of 1%. FIG. 5C: Single turnover rapid quench-flow analysis. […] Quantification of [^3H]-AcLys14 H3 peptide (diamonds) and the [^3H]-acetate-adduct (circles) was accomplished by liquid scintillation counting of these species separated using reverse phase HPLC. […]
P/CAF [^3H]-monoacetylation of H3 peptide. […] Every mass spectrum was recorded as the sum of 20 consecutive spectra, each produced by a single pulse of photons. […] The amount of [^3H]-AcLys14 H3 peptide and [^3H]-O-acetyl ADP ribose was determined by liquid scintillation counting of these species separated on reverse phase HPLC. […]

[1] = test system: Asterina miniata immature oocytes; assay: Microinjection into immature starfish oocytes, oocyte maturation (GVBD, polar body extrusion); assay type: cell-based; details: for effect on oocyte maturation as assessed by GVBD and polar body extrusion: microinjected, compared to control injections, text summary
Procedure: Asterina miniata gametes were collected and microinjections were performed as described previously (Carroll et al., 1999). Briefly, quantitative microinjection of Asterina miniata oocytes was performed at 16° C., using mercury-filled micropipets (Hiramoto, 1962; Kiehart, 1982; and see the information available at http://egg/uchc.edu/injection), allowing injection of precisely calibrated picoliter volumes into the oocytes and blastomeres. Injection volumes were 3% of the total cellular volume (for oocytes, 93 pL and for blastomeres, 47 pL). Buffer alone, purified O-acetylated ADP ribose or recombinant protein was injected into immature oocytes or one blastomere of a two cell stage embryo to a final concentration in the cytoplasm as indicated in the figure legends and Tables. 1-methyl adenine was from Sigma and was used at 10 μM.
Micro-injection assays were performed in starfish and sea urchin ooctyes. Historically echinoderm development has been a biochemically tractable and well-defined system to assess biological function of pruteins, bio-active compounds and for detailed analyses of the cell cycle. This system is attractive for its amenability to quantitative microinjection assays, cell cycle analyses, biochemical fractionation and microscopic imaging of eggs and early embryos. Initially, we hypothesized that if O-acetyl-ADP ribose produced by SIR2 was involved in SIR2's gene silencing ability, then micro-injection of O-acetyl-ADP ribose into a maturing oocyte should give rise to a phenotypic effect on the developing animal, perhaps through perturbations in normal gene expression patterns. Immature oocytes were micro-injected with HPLC-purified O-acetyl-ADP ribose or with a buffer control. The oocytes were allowed to mature by the addition of 1-methyladenine and assessed for developmental alterations.
Asterina miniata immature oocytes were microinjected with the amounts of O-acetyl ADP ribose in PBS. The maturation hormone 1-methyladenine was added (10 μM) 25-30 minutes post-injection. Oocytes were monitored for GVBD and polar body extrusion. […] The number of oocytes per treatment is given. Combined results of 3 separate experiments (3 batches of O-acetyl ADP ribose).
Asterina miniata immature oocytes were microinjected with the given enzymes in PBS. The maturation hormone 1-methyladenine was added (10 μM) 25-30 minutes post-injection. Oocytes were monitored for GVBD and polar body extrusion. […] The number of oocytes per treatment (n) is given. Data are from four separate batches of oocytes. All oocytes for a given treatment responded in the same way unless indicated otherwise (e.g. see 200 nM HST2 injection).

[2] = 0.2 mg/ml (0.32 mM) in cytoplasm
[3] = 0.5 mg/ml (0.8 mM) in cytoplasm
[4] = 1.0 mg/ml (1.6 mM) in cytoplasm

Chain of HST2 (P53686 whole entry): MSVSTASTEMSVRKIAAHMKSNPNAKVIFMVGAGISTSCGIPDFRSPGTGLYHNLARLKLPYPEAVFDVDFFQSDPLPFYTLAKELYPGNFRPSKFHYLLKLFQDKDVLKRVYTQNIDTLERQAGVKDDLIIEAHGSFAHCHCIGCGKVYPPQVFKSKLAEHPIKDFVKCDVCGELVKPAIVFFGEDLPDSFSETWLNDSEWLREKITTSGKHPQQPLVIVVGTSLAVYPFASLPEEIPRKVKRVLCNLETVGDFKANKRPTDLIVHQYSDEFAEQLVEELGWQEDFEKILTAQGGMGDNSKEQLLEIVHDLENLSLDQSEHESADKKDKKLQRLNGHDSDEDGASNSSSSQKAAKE

O-acetyl-ADP ribose
rate constant of acetate-adduct formation (HST2): 2.3 ± 0.2 s⁻¹
no effect (oocytes) ([1]; 0.01 mg/ml (0.016 mM) in cytoplasm): 8/8
no effect (oocytes) ([1]; 0.1 mg/ml (0.16 mM) in cytoplasm): 16/16
compete block (oocytes) [1, 2]: 1/8
no effect (oocytes) [1, 2]: 7/8
1-2 hr delay (oocytes) [1, 3]: 10/16
compete block (oocytes) [1, 3]: 6/16
1-2 hr delay (oocytes) [1, 4]: 1/23
compete block (oocytes) [1, 4]: 22/23
compete block (oocytes) ([1]; 1.7 mg/ml (3 mM) in cytoplasm): 6/6
immediate death (oocytes) ([1]; 3.0 mg/ml (5 mM) in cytoplasm): 1/3
no effect (oocytes) ([1]; 3.0 mg/ml (5 mM) in cytoplasm, 1-methyladenine 10 μM): 2/3
immediate death (oocytes) ([1]; 10 mg/ml (16 mM) in cytoplasm): 2/2
effect on apoptosis of unfertilized oocyte ([1]; apoptosis normally occurs after ~24 hrs if not fertilized): delayed apoptosis
GV breakdown, polar body extrusion and apoptosis of injected oocytes ([1]; final 1 mg/mL, images 3 and 24 hr post hormone treatment, FIG. 9): did not undergo GV breakdown or polar body extrusion, nor did they undergo apoptosis
effect on oocyte maturation as assessed by GVBD and polar body extrusion [1]: a delay in germinal vesicle breakdown (GVBD), or a complete block in oocyte maturation
effect on oocyte maturation as assessed by GVBD and polar body extrusion ([1]; listed as O-acetyl ADP ribose): block oocyte maturation
concentration below which no effect was observed (dose-dependency) ([1]; oocyte maturation): below 0.32 mM
